Test results reported in US7884067B2, “Peptides derived from cadherin and methods of use thereof” (Mount Sinai School of Medicine of New York University, priority 2001, dated 2011).

B1: N-Cad/CTF2: chicken cytoplasmic domain of N-cadherin (N-Cad/CTF2) inserted into vector pECE, expressed in L cells (protein)
chain: KRRDKERQAKQLLIDPEDDVRDNILKYDEEGGGEEDQDYDLSQLQQPDTVEPDAIKPVGIRRLDERPIHAEPQYPVRSAAPHPGDIGDFINEGLKAADNDPTAPPYDSLLVFDYEGSGSTAGSLSSLNSSSSGGEQDYDYLNDWGPRFKKLADMYGGGDD

Assays:
c-fos = c-fos mRNA (RT-PCR) and protein (Western blot) in N2a cells; assay type: cell-based, mouse
Experimental: Reverse Transcriptase (RT)-PCR Analysis. Total RNA was extracted from cells using a RNeasy Mini Kit (Qiagen) according to instructions by the manufacturer. Analysis of gene expression was performed using semiquantitative RT-PCR. The following primers were used: 5′-[…]-3′ (SEQ ID NO: 13) and 5′-[…]-3′ (SEQ ID NO: 14) for c-fos; 5′-[…]-3′ (SEQ ID NO: 15) and 5′-[…]-3′ (SEQ ID NO: 16) for gapdh.
N2a cells co-transfected with plasmids pCRE-luc, pFC-PKA, and pSV-β-galactosidase were incubated for 16 hours with DMSO or with L-685,458 ([…]) and CRE-dependent transactivation was measured as described above. Data in FIG. 10A are the mean+/−s.e. of 3 experiments normalized to β-galactosidase activity and protein concentration. *, P<0.05 (Student's t test). Total RNA isolated from N2a cells treated either with DMSO or with L-685,458, was analyzed by semiquantitative RT-PCR using specific primers for c-fos and gapdh. The graph in FIG. 10B represents the relative abundance of c-fos-specific PCR products following quantitation of the mRNA signals shown in the upper panel. Extract from N2a cells treated either with DMSO or with L-685,458, were probed on WBs with anti-c-fos or anti-β-tubulin antibodies. Extract from PS1+/+ or PS1−/− mouse fibroblasts were probed on WBs with either anti-c-fos or anti-β-tubulin antibodies. Extract from PS1+/− or PS1−/− mouse embryonic brains were probed on WBs with anti-c-fos (FIG. 10E, upper panel), anti-b-tubulin (FIG. 10E, middle panel), or anti-PS1/CTF (FIG. 10E, lower panel) antibodies.

MEF-1 = assay: Electrophoretic mobility shift assay, MEF-1 probe; assay type: biochemical; conditions: FIG. 11C lanes 12-14
Experimental: Electrophoresis mobility shift assay (EMSA). Nuclear extract from CBP-transfected L cells were prepared using the extraction kit N-XTRACT (Sigma) according to manufacturer's instructions. Ten microgram of nuclear extract was used for EMSA performed according to manufacturer's instructions using biotinylated double-stranded oligonucleotide probes containing DNA-binding motifs for CREB or MEF-1 (Panomics). Probes are as follow: CREB, 5′-[…]-3′ (SEQ ID NO: 17); MEF-1,5′-[…]-3′ (SEQ ID NO: 18). Reaction products were separated on 6% polyacrylamide gels in cold TBE buffer (50 mM Tris-HCl, 45 mM Boric acid, 0.5 mM EDTA), transferred to nylon membranes (Immobilon-Ny+, Millipore) and bound probes were immobilized for 30 minutes at 85° C. and visualized by chemiluminescence using streptavidin-HRP conjugate. For antibody supershift analysis, nuclear extract was incubated for 3 hours at 4° C. with […] of 1 B6 antibody prior to probe addition. Where indicated, nuclear extract ([…]) was immunoprecipitated with A-22 antibody ([…]) and protein A-agarose in EBC buffer (50 mM Tris, pH 8, 120 mM NaCl, 0.5% NP40, 1× Complete protease inhibitor cocktail).

CBP = molecular target: T1, CBP (Mus musculus, UniProt P45481); assay: Co-immunoprecipitation in pN-Cad/CTF2-transfected L cells; assay type: binding; conditions: FIG. 11B
T1 construct: a process that relies on endogenous CBP and CREB; endogenous in cells; host or cells: L cells transfected with vector or pN-Cad/CTF2
Experimental: Immunoprecipitations (IPs), immunoblotting and immunofluorescence. IPs were performed as described by Marambaud et al. (2002) EMBO J. 21: 1948-1956 in 4° C. HEPES buffer (25 mM HEPES, pH 7.4, 150 mM NaCl, 1× Complete protease inhibitor cocktail, Roche) containing 0.5% Nonidet P40 (NP40). For western blot (WB) analysis, cells were solubilized in 4° C. RIPA buffer (50 mM Tris-HCl, pH 8, 150 mM NaCl, 0.1% SDS, 1% NP-40, 0.5% sodium deoxycholate, 1× Complete protease inhibitor cocktail) as described by Marambaud et al. (2002). Immunofluorescence was performed as described by Georgakopoulos et al. (1999) with the following modifications: to visualize nuclei, cells were treated for 5 minutes with 4′,6-diamidino-2-phenylndole (DAPI, 1:5000; Sigma). Fluorescence microscopy and digital image acquisition were carried out using an Axioskop2 microscope (Zeizz).
To determine how N-Cad/CTF2 affects CREB-mediated transcription, the following experiments were performed. L cells transfected either with vector (vector) or pN-Cad/CTF2 (N-Cad/CTF2) plasmids were fractionated into nuclear and cytosolic fractions, and probed on WBs with anti-CBP (FIG. 11A, panel a), anti-N-cadherin (FIG. 11A, panel b), anti-β-tubulin (FIG. 11A, panel c) or anti-phosphorylated CREB (P-CREB; FIG. 11A, panel d) antibodies. […] L cells transiently transfected with pN-Cad/CTF2 were analyzed by immunofluorescence staining. […]

T1 sequence (P45481 whole entry): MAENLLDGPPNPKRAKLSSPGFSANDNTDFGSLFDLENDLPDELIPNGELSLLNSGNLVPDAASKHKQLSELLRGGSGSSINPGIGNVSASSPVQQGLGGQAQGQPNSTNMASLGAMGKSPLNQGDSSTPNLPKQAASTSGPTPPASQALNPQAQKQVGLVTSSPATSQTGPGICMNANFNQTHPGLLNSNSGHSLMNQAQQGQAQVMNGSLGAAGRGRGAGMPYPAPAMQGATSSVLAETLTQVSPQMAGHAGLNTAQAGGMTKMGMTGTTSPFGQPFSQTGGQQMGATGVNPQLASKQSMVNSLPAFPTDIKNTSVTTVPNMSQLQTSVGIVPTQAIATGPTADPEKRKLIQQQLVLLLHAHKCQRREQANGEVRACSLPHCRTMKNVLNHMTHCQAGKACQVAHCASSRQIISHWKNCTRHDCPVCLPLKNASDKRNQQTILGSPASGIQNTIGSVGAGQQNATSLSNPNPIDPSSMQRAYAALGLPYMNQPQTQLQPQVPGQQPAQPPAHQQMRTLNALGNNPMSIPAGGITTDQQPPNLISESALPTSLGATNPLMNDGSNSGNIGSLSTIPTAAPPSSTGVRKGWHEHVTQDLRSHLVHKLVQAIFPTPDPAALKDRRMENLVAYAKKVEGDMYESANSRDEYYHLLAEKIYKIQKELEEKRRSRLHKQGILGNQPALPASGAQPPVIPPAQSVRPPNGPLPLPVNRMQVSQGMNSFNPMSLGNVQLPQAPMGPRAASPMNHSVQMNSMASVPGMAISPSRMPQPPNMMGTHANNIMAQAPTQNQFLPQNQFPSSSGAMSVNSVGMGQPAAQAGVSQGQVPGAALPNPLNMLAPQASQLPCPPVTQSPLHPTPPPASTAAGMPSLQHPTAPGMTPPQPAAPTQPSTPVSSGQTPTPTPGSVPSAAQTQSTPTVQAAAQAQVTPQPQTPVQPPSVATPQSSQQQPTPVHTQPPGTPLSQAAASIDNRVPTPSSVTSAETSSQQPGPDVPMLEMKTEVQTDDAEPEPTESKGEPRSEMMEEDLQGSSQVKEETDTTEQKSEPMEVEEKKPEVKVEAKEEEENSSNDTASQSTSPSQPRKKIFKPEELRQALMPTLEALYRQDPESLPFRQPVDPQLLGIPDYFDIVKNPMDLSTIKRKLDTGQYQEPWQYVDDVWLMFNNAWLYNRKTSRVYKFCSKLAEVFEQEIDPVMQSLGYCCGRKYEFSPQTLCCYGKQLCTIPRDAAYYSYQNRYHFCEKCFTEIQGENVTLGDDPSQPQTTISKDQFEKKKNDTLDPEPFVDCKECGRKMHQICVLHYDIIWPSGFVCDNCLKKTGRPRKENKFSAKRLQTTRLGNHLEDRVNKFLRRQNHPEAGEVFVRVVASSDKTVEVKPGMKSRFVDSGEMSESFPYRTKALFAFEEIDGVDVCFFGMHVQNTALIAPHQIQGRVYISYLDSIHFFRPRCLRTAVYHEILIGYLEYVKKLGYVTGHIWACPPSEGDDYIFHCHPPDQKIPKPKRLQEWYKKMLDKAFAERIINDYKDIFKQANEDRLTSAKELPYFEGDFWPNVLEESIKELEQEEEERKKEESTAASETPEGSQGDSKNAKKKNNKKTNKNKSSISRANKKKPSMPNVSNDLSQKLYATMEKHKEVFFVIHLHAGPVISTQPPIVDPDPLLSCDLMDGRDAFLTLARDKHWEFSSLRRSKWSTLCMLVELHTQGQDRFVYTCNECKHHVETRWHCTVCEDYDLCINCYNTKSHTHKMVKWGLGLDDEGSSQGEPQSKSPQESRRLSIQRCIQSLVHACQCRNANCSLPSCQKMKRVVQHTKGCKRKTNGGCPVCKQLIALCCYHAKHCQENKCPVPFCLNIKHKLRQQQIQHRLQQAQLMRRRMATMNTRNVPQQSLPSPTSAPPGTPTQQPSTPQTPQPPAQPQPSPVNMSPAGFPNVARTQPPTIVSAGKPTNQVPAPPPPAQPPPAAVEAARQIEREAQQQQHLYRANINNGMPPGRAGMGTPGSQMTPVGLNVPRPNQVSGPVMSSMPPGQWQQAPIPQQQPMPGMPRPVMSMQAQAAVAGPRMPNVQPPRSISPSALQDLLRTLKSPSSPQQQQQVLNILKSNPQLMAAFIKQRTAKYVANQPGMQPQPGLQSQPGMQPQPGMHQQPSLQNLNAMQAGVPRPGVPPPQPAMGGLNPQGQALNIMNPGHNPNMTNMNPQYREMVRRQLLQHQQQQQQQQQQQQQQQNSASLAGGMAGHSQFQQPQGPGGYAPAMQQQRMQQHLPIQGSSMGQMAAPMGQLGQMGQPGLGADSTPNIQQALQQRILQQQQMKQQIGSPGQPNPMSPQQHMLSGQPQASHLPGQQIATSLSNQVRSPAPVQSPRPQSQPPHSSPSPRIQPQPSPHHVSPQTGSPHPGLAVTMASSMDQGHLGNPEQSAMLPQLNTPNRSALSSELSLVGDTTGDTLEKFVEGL

| Molecule | gapdh mRNA and β-tubulin (c-fos; L-685,458, FIGS. 10B and 10C) | c-fos mRNA (c-fos; L-685,458 vs untreated controls, FIG. 10B) | c-fos protein (c-fos; L-685,458 vs untreated controls, FIG. 10C) | complex formation between MEF-1 and DNA probe containing MEF-1-binding elements (MEF-1) | co-immunoprecipitation of N-Cad/CTF2 with CBP (CBP) |
| --- | --- | --- | --- | --- | --- |
| CC(C)C[C@H](NC(=O)[C@H](Cc1ccccc1)C[C@@H](O)[C@H](Cc1ccccc1)NC(=O)OC(C)(C)C)C(=O)N[C@@H](Cc1ccccc1)C(N)=O [L-685,458] | remained unchanged | stimulated | stimulated |  |  |
| B1 |  |  |  | no effect | co-immunoprecipitates with CBP |
